Results from patent publication US4391821A, “7-Substituted benzopyranes and process for the preparation thereof” (Chinoin Gyogyszer es Vegyeszeti Termekek Gyara R.T., priority 1980, dated 1983).

How the values were obtained:
[1] = test system: blood pressure lowering and heart frequency increasing effects induced by isoproterenol; test: Isoproterenol-induced blood pressure lowering and heart frequency increase in cats; type: in vivo; details: LD50/10 i.v., 2 mg/kg i.v. isoproterenol
[2] = test system: blood pressure and heart frequency; type: in vivo, cats
[3] = test system: rat intestine; test: Spasms induced in rat intestine by acetylcholine or barium chloride
[4] = test system: rabbit ilium; test: Spasmolytic effect on rabbit ilium
[5] = Acute toxicity in mice i.v.; details: mouse, in vivo, iv
[6] = test system: blood pressure; test: Blood pressure, heart frequency and breathing in rabbits; type: in vivo; details: i.v. or enterally
Excerpt: (§1) Propanolamines of formula (Ib) [drawing 4] constitute another special subgroup of compounds of formula (I). In formula (Ib) R1 and R2 are as defined above. These compounds have also very advantageous pharmaceutical effects, which, however, differ from the effects of the butanolamines of formula (Ia).

[7] = test system: rat Langendorff-heart; test: Coronary flow in rat Langendorff-heart; details: 10 μg/0,1 ml dose
Excerpt: as §1

[8] = test system: β-receptor; test: Antiisoproterenol effect, overall and concentration curves
Excerpt: (§2) The antiisoproterenol effect of the compound is moderated.

[9] = test system: guinea pig isolated left auricle; test: Antiisoproterenol effect in guinea pig isolated left auricle
Excerpt: as §2

[10] = test system: ventricular fibrillation threshold; test: Ventricular fibrillation threshold in open-chested anesthetized cats; type: in vivo
Excerpt: (§3) In formula (Ia) R1 and R2 are as defined above, preferably R1 is branched alkyl or cycloalkyl, and R2 is hydrogen.

[11] = test system: arrhythmia induced by 30 μg/kg i.v. aconitin; test: Aconitin-induced arrhythmia in rats; type: in vivo; details: LD50/10 i.v.
Excerpt: as §3

[12] = test system: trachea preparation; test: Antiisoproterenol effect in trachea preparation
Excerpt: as §2

[13] = test system: guinea pig isolated left auricle; test: Effective refractory period in guinea pig isolated left auricle (electrophysiology); details: 5×10^-5 M
Excerpt: as §2

[14] = test system: ventricular tadhycardia provoked by Strophantin; test: Strophantin-provoked ventricular tachycardia in anesthetized cats; type: in vivo
Excerpt: as §3

[15] = test system: increase of the T-wave in the electrocardiogram induced by ornithine-vasopressin; test: Ornithine-vasopressin-induced T-wave increase in ECG of rabbits anesthetized with urethane (antianginic); type: in vivo; details: LD50/40
Excerpt: From the pharmaceutical point of view the strong antianginic effect of our compounds of formula (Ia) is very important.

Structure (SMILES): CC1CCc2ccc(OCC(O)CNC3CCCCC3)cc2O1 (centres unmarked) [1-(2-methyl-3,4-dihydro-2H-1-benzopyrane-7-yloxy)-3-cyclohexylamino-2-propanol]
- inhibition of blood pressure lowering and heart frequency increasing effects induced by isoproterenol [1]: inhibits strongly

Structure (SMILES): Cc1cc(=O)c2ccc(OCC(O)CNC(C)(C)C)cc2o1 (centres unmarked) [1-(2-methyl-4H-1-benzopyrane-4-one-7-yloxy)-3-(1,1-dimethylethylamino)-2-propanol]
- reduction of blood pressure ([2]; LD50/20 i.v., anesthetized cats): 50.2%
- effect on heart frequency ([2]; in vivo, iv): without significantly affecting their heart frequency
- effect against spasms induced by acetylcholine ([3]; acetylcholine): effective
- effect against spasms induced by barium chloride ([3]; barium chloride): effective
- spasmolytic effect [4]: spasmolytic agent with parasympatholytic and direct striped muscle effects

Structure (SMILES): CC(C)NCC(O)COc1ccc2c(c1)OCCC2 (centres unmarked) [1-(3,4-dihydro-2H-1-benzopyrane-7-yloxy)-3-(1-methylethylamino)-2-propanol]
- blood pressure lowering ([2]; LD50/320 i.v., anesthetized cats): 33,5%
- LD50 [5]: 66 mg/kg

Structure (SMILES): CC(C)NCC(O)COc1ccc2c(c1)OCC(c1ccccc1)C2 (centres unmarked) [1-(3-phenyl-3,4-dihydro-2H-1-benzopyrane-7-yloxy)-3-(1-methylethylamino)-2-propanol]
- blood pressure lowering [6]: significant and long-lasting blood pressure lowering
- effect on heart frequency, volume of breathing and frequency of breathing [6]: without affecting the heart frequency, the volume of breathing and the frequency of breathing
- coronary flow [7]: increases the coronary flow

Structure (SMILES): OC(CCNC1CCCCC1)COc1ccc2c(c1)OC(c1ccccc1)CC2 (centres unmarked) [4-cyclohexylamino-1-(2-phenyl-3,4-dihydro-2H-1-benzopyrane-7-yloxy)-2-butanol]
- antiisoproterenol effect ([8]; overall): moderated
- character of the antiisoproterenol effect ([8]; runs of the concentration curves): not of a competitive character
- concentration with antiisoproterenol effect in left auricle [9]: 50 µM
- ventricular fibrillation threshold [10]: remarkably increases
- ventricular fibrillation threshold, effect compared with Propranolol ([10]; versus Propranolol): stronger effect that that of Propranolol
- effect on arrhythmia induced by aconitin [11]: revokes arrhythmia
- concentration with antiisoproterenol effect in trachea preparation [12]: 10^-4 M
- effect on effective refractory period compared with Practolol ([13]; versus Practolol): stronger by nearly an order of magnitude than that of Practolol
- effect on effective refractory period compared with Propranolol ([13]; versus Propranolol): almost as strong as the effect of Propranolol
- time for which ventricular tachycardia provoked by Strophantin is suspended [14]: 19 min

Structure (SMILES): OC(CCNC1CCCCC1)COc1ccc2c(c1)OCC(c1ccccc1)C2 (centres unmarked) [4-cyclohexylamino-1-(3-phenyl-3,4-dihydro-2H-1-benzopyrane-7-yloxy)-2-butanol]
- elimination of the increase of the T-wave in the electrocardiogram ([15]; rabbits anesthetized with urethane, 0.5 E/kg ornithine-vasopressin): eliminates practically completely
- effect on T-wave increase compared with Propranolol ([15]; versus Propranolol): significantly surpasses the effect of Propranolol
